Experimental data from patent publication US20050265999A1, “Modulation of 5-HT2 receptors as a treatment for cardiovascular diseases” (Myogen, Inc., priority 2003, published 2005).

Legend:
[1] = tested on: neonatal rat ventricular myocytes (NRVM); assay: Total cellular protein (Coomassie dye-binding) in NRVM; format: cell-based; conditions: NRVM stimulated with compound alone
Procedure: (§1) NRVM culture. For preparations of neonatal rat ventricular myocytes (NRVMs), hearts were removed from 10-20 newborn (1-2 days old) Sprague-Dawley rats. Isolated ventricles were pooled, minced and dispersed by three 20-min incubations at 37° C. in Ads buffer (116 mM NaCl, 20 mM HEPES, 10 mM NaH2PO4, 5.5 mM glucose, 5 mM KCl, 0.8 mM MgSO4, pH 7.4) containing collagenase Type II (65 units/ml, Worthington) and pancreatin (0.6 mg/ml, GibcoBRL). Dispersed cells were applied to a discontinuous gradient of 40.5% and 58.5% (v/v) Percoll (Amersham Biosciences), centrifuged, and myocytes collected from the interface layer. […]
Hypertrophy and toxicity assays. Primary hypertrophy endpoints for NRVM included quantitation of: ANF secretion, total cellular protein and cell volume. ANF in media supernatants was quantitated by competitive ELISA using a monoclonal anti-ANF antibody (Biodesign) and a biotinylated ANF peptide (Phoenix Peptide). Total cellular protein was quantitated by standard Coomassie dye-binding assay; cells were lysed in protein assay reagent (BioRad) and absorbance at A595 was measured after 1 hour. […] After recovery by centrifugation, cell pellets were washed in PBS, resuspended in 10 ml IsoFlow electrolyte solution (Beckman-Coulter) and analyzed with a Z2 Coulter Particle Counter and Size Analyzer (Beckman-Coulter). […]

[2] = tested on: neonatal rat ventricular myocytes (NRVM); assay: ANF secretion by competitive ELISA in NRVM; format: cell-based; conditions: NRVM stimulated with compound alone
Procedure: as §1, with “layer. Myocyte preparations were pre-plated in Dulbecco's modified Eagle's medium (DMEM, Cellgro), supplemented with 10% (v/v) fetal bovine serum (FBS, HyClone), 4 mM L-glutamine and 1% penicillin/streptomycin for 1 hour at 37° C. to reduce fibroblast contamination, then plated at a density of 2.5×10^5 cells per well on 6-well tissue culture plates (or 10,000 cells/well on 96-well tissue culture plates) coated with a 0.2% (w/v) gelatin solution.” for “layer.”
Hypertrophy and toxicity assays. Primary hypertrophy endpoints for NRVM included quantitation of: ANF secretion, total cellular protein and cell volume. ANF in media supernatants was quantitated by competitive ELISA using a monoclonal anti-ANF antibody (Biodesign) and a biotinylated ANF peptide (Phoenix Peptide). Total cellular protein was quantitated by standard Coomassie dye-binding assay; cells were lysed in protein assay reagent (BioRad) and absorbance at A595 was measured after 1 hour. […] After recovery by centrifugation, cell pellets were washed in PBS, resuspended in 10 ml IsoFlow electrolyte solution (Beckman-Coulter) and analyzed with a Z2 Coulter Particle Counter and Size Analyzer (Beckman-Coulter). Cytotoxicity was quantitated by measuring release of adenylate kinase (AK) from cultured NRVM into culture medium (ToxiLight kit, Cambrex).

[3] = tested on: primary rat neonatal cardiomyocytes; assay: Immunofluorescence / morphology of cardiomyocyte hypertrophy in NRVM; format: cell-based; conditions: 1 μM, 48 h
Procedure: NRVM culture. For preparations of neonatal rat ventricular myocytes (NRVMs), hearts were removed from 10-20 newborn (1-2 days old) Sprague-Dawley rats. Isolated ventricles were pooled, minced and dispersed by three 20-min incubations at 37° C. in Ads buffer (116 mM NaCl, 20 mM HEPES, 10 mM NaH2PO4, 5.5 mM glucose, 5 mM KCl, 0.8 mM MgSO4, pH 7.4) containing collagenase Type II (65 units/ml, Worthington) and pancreatin (0.6 mg/ml, GibcoBRL). Dispersed cells were applied to a discontinuous gradient of 40.5% and 58.5% (v/v) Percoll (Amersham Biosciences), centrifuged, and myocytes collected from the interface layer. Myocyte preparations were pre-plated in Dulbecco's modified Eagle's medium (DMEM, Cellgro), supplemented with 10% (v/v) fetal bovine serum (FBS, HyClone), 4 mM L-glutamine and 1% penicillin/streptomycin for 1 hour at 37° C. to reduce fibroblast contamination, then plated at a density of 2.5×10^5 cells per well on 6-well tissue culture plates (or 10,000 cells/well on 96-well tissue culture plates) coated with a 0.2% (w/v) gelatin solution. After 24 hours in culture, myocyte preparations were transferred to serum-free maintenance medium (DMEM supplemented with 0.1% (v/v) Nutridoma (Roche), L-glutamine and penicillin/streptomycin). Where indicated, NRVM were treated with test compounds for a period of 48 h. […]

[4] = target: T1, Adenosine A2A (Homo sapiens, UniProt P29274); assay: Radioligand receptor binding assay (MDS Pharma); conditions: 10 μM compound, n=2
T1 construct: purchased MDS Pharma services 200610
T1 sequence (P29274 whole entry): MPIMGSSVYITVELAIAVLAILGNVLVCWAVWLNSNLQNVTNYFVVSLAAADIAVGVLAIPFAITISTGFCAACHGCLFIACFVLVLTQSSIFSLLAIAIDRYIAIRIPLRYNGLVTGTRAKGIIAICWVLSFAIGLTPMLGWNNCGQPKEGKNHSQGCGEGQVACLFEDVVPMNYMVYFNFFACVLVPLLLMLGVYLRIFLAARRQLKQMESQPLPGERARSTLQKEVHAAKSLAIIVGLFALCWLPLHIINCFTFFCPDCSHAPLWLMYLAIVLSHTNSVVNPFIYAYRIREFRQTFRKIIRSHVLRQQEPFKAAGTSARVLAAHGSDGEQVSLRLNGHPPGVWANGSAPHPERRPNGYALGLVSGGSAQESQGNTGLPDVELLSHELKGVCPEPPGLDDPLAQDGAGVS
Procedure: (§2) Receptor binding assays. Receptor binding assays were performed by MDS Pharma services. Assays included: Adenosine A1 (cat# 200510), Adenosine A2A (cat# 200610), Adenosine A3 (cat# 200720), Adrenergic alpha 1 (cat# 203500), Imidazoline 12 central (cat# 241000), Imidazoline I2 peripheral (cat# 241100), Inositol triphosphate (cat# 242500), Phorbol Ester (cat# 264500), 5-HT 2B (cat# 271700), and 5-HT 4 (cat# 272000).
(§3) • Summary of radioligand binding assays for 11 receptors. Data represent % inhibition of ligand binding in the presence of 10 μM 18264 (n=2).

[5] = tested on: Imidazoline I2, peripheral; assay: Radioligand receptor binding assay (MDS Pharma); conditions: 10 μM compound, n=2
Procedure: as §2, §3

[6] = tested on: Imidazoline I2, central; assay: Radioligand receptor binding assay (MDS Pharma); conditions: 10 μM compound, n=2
Procedure: as §2, §3

[7] = target: T2, Adenosine A1 (Homo sapiens, UniProt P30542); assay: Radioligand receptor binding assay (MDS Pharma); conditions: 10 μM compound, n=2
T2 construct: purchased MDS Pharma services 200510
T2 sequence (P30542 1-326): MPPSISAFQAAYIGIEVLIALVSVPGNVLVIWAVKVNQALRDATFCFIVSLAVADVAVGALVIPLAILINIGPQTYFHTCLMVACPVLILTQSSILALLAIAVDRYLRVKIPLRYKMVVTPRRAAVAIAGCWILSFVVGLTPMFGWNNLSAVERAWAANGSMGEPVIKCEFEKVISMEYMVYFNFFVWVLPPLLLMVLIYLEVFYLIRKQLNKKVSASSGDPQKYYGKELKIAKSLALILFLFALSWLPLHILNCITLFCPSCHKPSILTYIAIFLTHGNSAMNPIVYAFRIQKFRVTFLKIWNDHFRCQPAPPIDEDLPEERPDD
Procedure: as §2, §3

[8] = target: T3, Adenosine A3 (Homo sapiens, UniProt P0DMS8); assay: Radioligand receptor binding assay (MDS Pharma); conditions: 10 μM compound, n=2
T3 construct: purchased MDS Pharma services 200720
T3 sequence (P0DMS8 1-318): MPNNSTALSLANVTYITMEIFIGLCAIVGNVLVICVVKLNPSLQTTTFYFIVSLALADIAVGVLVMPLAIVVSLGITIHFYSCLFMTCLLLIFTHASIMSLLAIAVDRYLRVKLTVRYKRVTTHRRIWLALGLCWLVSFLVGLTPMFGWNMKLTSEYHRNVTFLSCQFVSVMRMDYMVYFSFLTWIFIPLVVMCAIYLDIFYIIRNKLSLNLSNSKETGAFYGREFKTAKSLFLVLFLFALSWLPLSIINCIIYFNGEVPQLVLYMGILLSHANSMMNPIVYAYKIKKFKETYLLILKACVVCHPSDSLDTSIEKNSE
Procedure: as §2, §3

[9] = tested on: Adrenergic alpha 1; assay: Radioligand receptor binding assay (MDS Pharma); conditions: 10 μM compound, n=2
Procedure: as §2, §3

[10] = tested on: Phorbol Ester; assay: Radioligand receptor binding assay (MDS Pharma); conditions: 10 μM compound, n=2
Procedure: as §2, §3

[11] = target: T4, Inositol Triphosphate IP3 (Rattus norvegicus, UniProt P29994); assay: Radioligand receptor binding assay (MDS Pharma); conditions: 10 μM compound, n=2
T4 construct: purchased MDS Pharma services 242500
T4 sequence (P29994 whole entry): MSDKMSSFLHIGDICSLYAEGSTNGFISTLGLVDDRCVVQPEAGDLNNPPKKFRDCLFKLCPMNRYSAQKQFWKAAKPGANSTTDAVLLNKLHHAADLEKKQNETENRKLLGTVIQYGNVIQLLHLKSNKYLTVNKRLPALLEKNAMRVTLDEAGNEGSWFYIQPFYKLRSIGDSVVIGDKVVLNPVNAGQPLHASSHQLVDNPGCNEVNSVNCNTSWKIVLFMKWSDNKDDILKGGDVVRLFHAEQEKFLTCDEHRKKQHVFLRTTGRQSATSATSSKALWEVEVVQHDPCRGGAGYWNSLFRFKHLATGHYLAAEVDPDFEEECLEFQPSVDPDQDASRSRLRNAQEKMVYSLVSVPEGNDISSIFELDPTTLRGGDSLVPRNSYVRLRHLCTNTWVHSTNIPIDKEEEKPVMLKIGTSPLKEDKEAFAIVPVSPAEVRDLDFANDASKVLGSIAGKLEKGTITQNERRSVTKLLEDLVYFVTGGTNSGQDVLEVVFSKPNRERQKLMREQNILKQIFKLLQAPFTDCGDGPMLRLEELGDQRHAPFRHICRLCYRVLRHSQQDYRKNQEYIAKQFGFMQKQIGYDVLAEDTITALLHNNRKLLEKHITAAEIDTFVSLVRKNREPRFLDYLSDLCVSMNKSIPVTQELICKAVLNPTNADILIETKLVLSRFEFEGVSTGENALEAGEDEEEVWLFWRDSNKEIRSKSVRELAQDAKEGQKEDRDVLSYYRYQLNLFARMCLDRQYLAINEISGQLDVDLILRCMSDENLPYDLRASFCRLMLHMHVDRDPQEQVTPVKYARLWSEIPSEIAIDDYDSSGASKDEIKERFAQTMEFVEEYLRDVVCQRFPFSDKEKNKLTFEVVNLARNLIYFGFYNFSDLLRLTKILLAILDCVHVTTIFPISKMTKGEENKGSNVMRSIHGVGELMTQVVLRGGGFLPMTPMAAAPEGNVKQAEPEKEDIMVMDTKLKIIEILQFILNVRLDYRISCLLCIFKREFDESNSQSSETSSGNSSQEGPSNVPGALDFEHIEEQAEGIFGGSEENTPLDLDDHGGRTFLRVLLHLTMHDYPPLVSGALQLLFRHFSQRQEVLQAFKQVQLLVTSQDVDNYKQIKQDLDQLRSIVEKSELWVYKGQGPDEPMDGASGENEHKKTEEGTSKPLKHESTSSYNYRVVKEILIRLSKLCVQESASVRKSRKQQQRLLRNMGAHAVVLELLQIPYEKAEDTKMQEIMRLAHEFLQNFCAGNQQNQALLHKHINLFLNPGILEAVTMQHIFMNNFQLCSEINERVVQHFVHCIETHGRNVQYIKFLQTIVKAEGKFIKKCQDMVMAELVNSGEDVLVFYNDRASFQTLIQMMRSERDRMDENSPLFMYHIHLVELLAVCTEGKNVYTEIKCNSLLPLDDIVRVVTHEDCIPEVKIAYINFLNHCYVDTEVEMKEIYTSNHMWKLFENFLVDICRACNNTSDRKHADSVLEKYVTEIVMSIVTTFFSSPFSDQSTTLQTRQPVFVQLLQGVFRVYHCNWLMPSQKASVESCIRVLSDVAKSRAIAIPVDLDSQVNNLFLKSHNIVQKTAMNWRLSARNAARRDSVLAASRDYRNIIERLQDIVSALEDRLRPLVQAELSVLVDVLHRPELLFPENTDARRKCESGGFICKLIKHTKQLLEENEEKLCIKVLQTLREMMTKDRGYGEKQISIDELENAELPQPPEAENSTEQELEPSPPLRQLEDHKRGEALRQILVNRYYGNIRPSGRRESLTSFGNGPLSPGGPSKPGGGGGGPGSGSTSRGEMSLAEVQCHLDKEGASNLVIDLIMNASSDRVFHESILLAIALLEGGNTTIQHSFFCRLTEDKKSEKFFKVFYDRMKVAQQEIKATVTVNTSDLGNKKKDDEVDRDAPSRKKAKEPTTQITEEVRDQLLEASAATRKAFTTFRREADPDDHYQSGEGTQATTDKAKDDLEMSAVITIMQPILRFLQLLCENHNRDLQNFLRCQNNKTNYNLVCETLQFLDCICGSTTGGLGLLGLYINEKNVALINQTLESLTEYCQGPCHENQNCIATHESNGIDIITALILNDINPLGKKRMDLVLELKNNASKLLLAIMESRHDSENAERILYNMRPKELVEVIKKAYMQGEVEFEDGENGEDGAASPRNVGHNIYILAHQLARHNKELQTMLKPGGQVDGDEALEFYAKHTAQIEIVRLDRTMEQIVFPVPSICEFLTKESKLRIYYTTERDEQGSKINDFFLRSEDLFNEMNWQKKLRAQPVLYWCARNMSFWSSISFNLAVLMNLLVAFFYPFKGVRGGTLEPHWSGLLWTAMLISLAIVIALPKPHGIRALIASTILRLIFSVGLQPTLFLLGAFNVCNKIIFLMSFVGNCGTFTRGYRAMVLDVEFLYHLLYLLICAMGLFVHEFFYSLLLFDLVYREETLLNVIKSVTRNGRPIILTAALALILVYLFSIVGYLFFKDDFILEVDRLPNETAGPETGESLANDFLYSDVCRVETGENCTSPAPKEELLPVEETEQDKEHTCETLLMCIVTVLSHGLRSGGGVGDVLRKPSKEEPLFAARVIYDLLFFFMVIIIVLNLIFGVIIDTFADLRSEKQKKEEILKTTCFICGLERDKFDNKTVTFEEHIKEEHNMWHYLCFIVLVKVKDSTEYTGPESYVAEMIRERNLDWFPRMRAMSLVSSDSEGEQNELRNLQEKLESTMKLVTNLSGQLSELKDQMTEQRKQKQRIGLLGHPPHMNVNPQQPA
Procedure: as §2, §3

[12] = target: T5, 5-HT4 (Cavia porcellus, UniProt O70528); assay: Radioligand receptor binding assay (MDS Pharma)
T5 construct: purchased MDS Pharma services 272000
T5 sequence (O70528 whole entry): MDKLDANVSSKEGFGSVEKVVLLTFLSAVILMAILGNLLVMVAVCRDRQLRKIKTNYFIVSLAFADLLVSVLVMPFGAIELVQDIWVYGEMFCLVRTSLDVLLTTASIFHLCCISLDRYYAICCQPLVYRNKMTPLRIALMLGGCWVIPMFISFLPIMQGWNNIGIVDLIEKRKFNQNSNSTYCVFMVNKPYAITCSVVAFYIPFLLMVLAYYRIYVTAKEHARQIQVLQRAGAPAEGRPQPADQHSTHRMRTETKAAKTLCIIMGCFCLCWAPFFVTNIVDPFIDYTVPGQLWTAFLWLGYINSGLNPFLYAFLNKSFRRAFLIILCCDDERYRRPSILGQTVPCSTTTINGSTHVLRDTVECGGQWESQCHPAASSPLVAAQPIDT
Procedure: as §2, §3

With `Cc1c(-c2ccccc2)nc2sc3c(c2c1N)CCCC3` [Compound 18264, 3-Methyl-2-phenyl-5,6,7,8-tetrahydro-benzo[4,5]thieno[2,3-b]pyridin-4-ylamine] the total cellular protein [1] was “increased”, the ANF expression/secretion [2] was “up-regulated ANF expression” and the “induction of myocyte hypertrophy (enlargement, sarcomere assembly)” value [3] was “extraordinarily potent inducer of myocyte hypertrophy”. For the same compound, the inhibition at 10 µM [4] was 14%, the “% Inhibition of Binding” value [5] was 4% and the “% Inhibition of Binding” value [6] was 15%. The inhibition at 10 µM [7] was 17%, the inhibition at 10 µM [8] was 24% and the “% Inhibition of Binding” value [9] was 17%. The “% Inhibition of Binding” value [10] was 2%, the inhibition at 10 µM [11] was 3% and the inhibition at 10 µM ([12]; 10 μM compound, n=2) was 17%. For the same compound, the “binding (in words)” value ([12]; radioligand binding, 10 μM) was “No significant binding”.
